Source: patent US20070112075A1 (Forest Laboratories, Inc., priority 2005, published 2007)
Counter-ions that a name gives are not always drawn.

Experiments:
[1] = Stability of escitalopram oxalate in commercial formulations and in contact with bupropion hydrochloride; type: physicochemical
Excerpt: Preferably, the bupropion and escitalopram in the oral dosage form are physically separated. The inventors have discovered that conventional formulations of escitalopram hydrobromide and escitalopram oxalate unexpectedly degrade under storage conditions. […] The escitalopram and bupropion may be separated by having separate discrete zones of the dosage form (such as different layers) for each component. Alternatively, the dosage form may include a plurality of escitalopram tablets or beads and a plurality of bupropion tablets or beads, where one or both of the escitalopram tablets/beads and bupropion tablets/beads are coated.

norepinephrine uptake = settings: cited from earlier work
monoamine oxidase = settings: cited from earlier work

Row | time stable in commercial formulations ([1]; commercial formulations) | degradation rate compared with commercial formulations ([1]; stored in intimate contact with bupropion hydrochloride) | Structure (SMILES) | blockade of norepinephrine uptake (norepinephrine uptake) | inhibition of monoamine oxidase (monoamine oxidase)
1 | about 12 months | degrades significantly more rapidly | CN(C)CCC[C@@]1(c2ccc(F)cc2)OCc2cc(C#N)ccc21 [escitalopram oxalate] |  | 
2 |  |  | CC(NC(C)(C)C)C(=O)c1cccc(Cl)c1 (racemic) [bupropion, (±)-1-(3-chlorophenyl)-2-[(1,1-dimethylethyl)amino]-1-propanone] | weak blocker | does not inhibit
